Measured values: BindingDB's records for doi:10.1016/j.chembiol.2015.10.013 (Pfizer, 2015)

What was measured:
[1] = target: T1, Bromodomain-containing protein 4 (Homo sapiens, UniProt O60885); test: BRD4 Fluorescence Polarization (FP)
CREB-binding protein [2] = target: T2, CREB-binding protein (Homo sapiens, UniProt Q92793); test: CBP Fluorescence Resonance Energy Transfer (FRET)
CREB-binding protein [3] = target: T2, CREB-binding protein; test: ITC
[4] = target: T1, Bromodomain-containing protein 4; test: ITC

T2 sequence (Q92793 whole entry): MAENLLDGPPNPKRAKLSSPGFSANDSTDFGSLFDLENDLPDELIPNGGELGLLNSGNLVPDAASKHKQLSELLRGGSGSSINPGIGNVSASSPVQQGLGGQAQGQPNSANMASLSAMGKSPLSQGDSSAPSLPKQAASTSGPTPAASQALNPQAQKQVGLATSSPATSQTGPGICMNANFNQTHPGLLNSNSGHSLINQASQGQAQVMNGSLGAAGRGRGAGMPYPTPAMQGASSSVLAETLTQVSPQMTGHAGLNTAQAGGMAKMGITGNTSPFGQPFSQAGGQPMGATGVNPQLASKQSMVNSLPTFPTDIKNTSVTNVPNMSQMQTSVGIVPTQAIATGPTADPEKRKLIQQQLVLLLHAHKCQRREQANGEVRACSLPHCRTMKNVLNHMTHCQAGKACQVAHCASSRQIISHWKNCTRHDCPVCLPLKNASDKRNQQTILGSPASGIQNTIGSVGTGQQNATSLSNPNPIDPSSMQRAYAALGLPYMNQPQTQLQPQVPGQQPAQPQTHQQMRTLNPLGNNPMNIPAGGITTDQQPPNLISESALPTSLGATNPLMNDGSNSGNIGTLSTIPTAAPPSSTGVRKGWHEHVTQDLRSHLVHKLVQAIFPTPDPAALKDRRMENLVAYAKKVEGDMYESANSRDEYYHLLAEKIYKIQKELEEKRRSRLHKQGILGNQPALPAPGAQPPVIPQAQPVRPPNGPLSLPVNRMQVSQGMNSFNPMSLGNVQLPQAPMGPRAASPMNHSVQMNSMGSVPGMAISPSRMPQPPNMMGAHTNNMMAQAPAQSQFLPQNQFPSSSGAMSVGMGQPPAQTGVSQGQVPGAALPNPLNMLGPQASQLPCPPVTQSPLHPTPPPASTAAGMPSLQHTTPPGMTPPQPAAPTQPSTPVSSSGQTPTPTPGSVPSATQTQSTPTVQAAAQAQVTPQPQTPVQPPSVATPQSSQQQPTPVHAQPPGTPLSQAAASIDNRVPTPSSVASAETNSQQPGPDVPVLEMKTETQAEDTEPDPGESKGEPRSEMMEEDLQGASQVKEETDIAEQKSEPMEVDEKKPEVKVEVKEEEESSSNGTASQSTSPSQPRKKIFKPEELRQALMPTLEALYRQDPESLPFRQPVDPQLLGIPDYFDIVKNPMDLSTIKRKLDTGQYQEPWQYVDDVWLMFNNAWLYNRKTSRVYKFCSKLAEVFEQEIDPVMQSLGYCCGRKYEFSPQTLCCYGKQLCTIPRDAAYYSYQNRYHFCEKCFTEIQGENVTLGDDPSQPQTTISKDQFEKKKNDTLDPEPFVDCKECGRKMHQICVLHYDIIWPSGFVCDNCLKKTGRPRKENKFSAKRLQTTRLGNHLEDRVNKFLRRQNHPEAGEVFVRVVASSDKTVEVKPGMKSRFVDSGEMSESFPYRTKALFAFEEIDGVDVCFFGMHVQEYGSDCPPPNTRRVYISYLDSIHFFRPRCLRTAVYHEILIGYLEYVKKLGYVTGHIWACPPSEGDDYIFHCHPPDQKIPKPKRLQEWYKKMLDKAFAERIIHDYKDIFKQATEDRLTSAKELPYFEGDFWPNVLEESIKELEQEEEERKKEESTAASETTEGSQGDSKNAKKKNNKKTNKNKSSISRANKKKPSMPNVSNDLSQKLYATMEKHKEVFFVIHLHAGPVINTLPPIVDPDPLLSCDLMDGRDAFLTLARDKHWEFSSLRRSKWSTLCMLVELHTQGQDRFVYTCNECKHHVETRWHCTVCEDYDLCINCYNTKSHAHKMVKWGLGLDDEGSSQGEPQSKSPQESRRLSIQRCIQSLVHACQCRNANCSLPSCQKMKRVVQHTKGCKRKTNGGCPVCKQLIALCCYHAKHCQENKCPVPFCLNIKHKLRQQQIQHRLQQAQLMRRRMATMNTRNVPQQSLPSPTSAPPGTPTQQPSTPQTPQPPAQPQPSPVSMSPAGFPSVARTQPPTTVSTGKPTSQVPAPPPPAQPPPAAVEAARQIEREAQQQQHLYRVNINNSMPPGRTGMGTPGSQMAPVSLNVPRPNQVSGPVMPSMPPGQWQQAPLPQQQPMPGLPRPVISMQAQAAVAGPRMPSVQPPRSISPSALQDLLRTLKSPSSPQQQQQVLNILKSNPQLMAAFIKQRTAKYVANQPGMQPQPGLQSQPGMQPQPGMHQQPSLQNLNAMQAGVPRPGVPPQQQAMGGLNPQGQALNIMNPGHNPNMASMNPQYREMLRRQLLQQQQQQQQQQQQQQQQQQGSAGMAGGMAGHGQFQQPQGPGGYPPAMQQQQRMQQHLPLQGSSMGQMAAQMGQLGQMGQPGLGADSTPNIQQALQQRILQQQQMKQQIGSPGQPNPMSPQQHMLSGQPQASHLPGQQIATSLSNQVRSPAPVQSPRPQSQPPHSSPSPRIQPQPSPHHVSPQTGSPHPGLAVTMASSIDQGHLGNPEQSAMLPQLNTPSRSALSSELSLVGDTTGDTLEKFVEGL

Compound	IC50 [1] [µM]	IC50 (CREB-binding protein [2]) [µM]	Kd (CREB-binding protein [3]) [nM]	Kd [4] [µM]
COc1ccc(CCc2nc3c(C)c(-c4c(C)noc4C)c(C)cc3n2CCN2CCOCC2)cc1 [ISOX-INACT]	> 120	10.6	–	–
CCCOc1ccc(CCc2nc3cc(-c4c(C)noc4C)ccc3n2CCN2CCOCC2)cc1 [PF-CBP1]	18.1	0.13	190	> 20
